Literature values in patent US20050070607A1, “N-acetylcysteine compositions and methods for the treatment and prevention of cysteine/glutathione deficiency in diseases and conditions” (priority 2003, published 2005).
Like-named read-outs stand apart in the source and are kept apart here.

What was measured:
[1] = system: COPD subjects
[2] = system: patients with polycystic ovary syndrome; conditions: circulating insulin levels and insulin sensitivity; 1.8-3 g daily depending on weight; n 33; 6 weeks; Fulghesu 2002[20]
[3] = system: normal subjects breathing against high inspiratory loads; conditions: development of diaphragm fatigue; 150 mg/kg IV; n 4; 3 weeks; Travaline 1997[37]
[4] = system: Sickle Cell Disease/Vaso-occlusive disease; conditions: 2,400 mg daily, 12 months, Pace 2003[18]
[5] = system: Contrast-induced nephropathy (CIN)
[6] = system: patients who have already developed fulminant hepatic failure; conditions: observational study, one hundred patients [138]
[7] = system: subjects classified as slow clearers; conditions: .6 g oral daily, 60 days, Todisco 1985[38]
[8] = system: cochlea
[9] = system: Cystic Fibrosis (CF)
[10] = system: non-insulin dependent diabetic (NIDDM) patients
[11] = system: Hyperoxic ventilation; conditions: whole body oxygen uptake, oxygen extraction ratio, gastric intramucosal pH; IV over 15 min; n 38; 72 hours; Reinhart 1995[266]
[12] = system: plaque formation; conditions: 2 weeks, Bowles 1985[61]
[13] = system: patients with high plasma Lp(a); conditions: plasma homocysteine; Lp(a) >0.3 g/l; 4000 mg daily po; n 11; 14 days; Wiklund 1996[277]

## CC(=O)N[C@@H](CS)C(=O)O [NAC, N-acetylcysteine]
[1]; hydrogen peroxide formation in the airways, oral 600 mg fizzy, n 44, 12 months, Kasielski 2001[210]
  Beneficial effects: Beneficial
[1]; mucus viscosity, effective cough, clinical symptoms, 600 mg, n 60, 10 days, Verstraeten 1979[39]
  Beneficial effects: Beneficial
[1]; quadriceps endurance, exercise induced oxidative stress, 1800 mg for 4 days and 600 mg the day of the test, n 9, Koechlin 2004[278]
  Beneficial effects: Beneficial
[2]
  Beneficial effects: Beneficial
[3]
  Beneficial effects: Beneficial
[4]; decreased from 0.03
  vaso-occlusive episodes: occlusive episodes (0.03 to 0.006 episodes episodes per person-days
[4]; dense cell formation, glutathione levels, vaso-occlusive episodes, n 21
  Beneficial effects: Beneficial
[5]; 400 mg PO bid for 2 days, n 121, Shyu 2002[8]
  RR (incidence of contrast-induced nephropathy): contrast-induced nephropathy (RR 0.13)
[5]; 600 mg PO bid, n 54, Diaz-Sandoval 2002[7]
  RR (incidence of post-catheterization nephropathy): 0.21) in patients with stable chronic renal
[5]; 600 mg PO bid, n 83, Tepel[3-5]
  relative risk, RR (reduction in renal function induced by iopromide): contrast agent (relative risk, RR 0.10)
[5]; 83 patients with baseline renal impairment, computed tomography with nonionic low-osmolality contrast agent, Tepel[3-5]
  reduction in the incidence of acute renal failure: 90%
[5]; chronic renal insufficiency, iopromide, 600 mg PO bid with hydration, n 83, 2 days, Tepel 2000, 2001, 2003[3-5]
  Beneficial effects: Beneficial
[5]; control 6.4%, 1500 mg for 4 doses, Oldemeyer 2003[188]
  incidence of CIN by 48 hours: both groups was low (NAC 8.2%, control
[5]; control 12%, 600 mg 4 times daily, Boccalandro 2003[187]
  incidence of CIN at 48 hours: hours (NAC, 13%; control 12%) after
[5]; coronary angiographic procedures, 600 mg PO bid, n 200, Kay 2003[6]
  RR (contrast-induced deterioration in renal function): adverse effects (RR 0.32). Kay, 2003[6]
[5]; moderate chronic renal insufficiency, coronary angiographic procedures, 600 mg PO bid, n 200, 3 days, Kay 2003[6]
  Beneficial effects: Beneficial
[5]; oxidative stress-mediated proximal tubular injury, 1200 mg daily, n 24, 4 days, Drager 2004[271]
  Beneficial effects: Beneficial
[5]; serum creatinine > 1.2 mg/dL, elective coronary angiography, creatinine clearance at 24 and 96 hours, 1000 mg daily, n 49, 4 days, Efarti 2003[9]
  Beneficial effects: Beneficial
[5]; serum creatinine >= 1.5 mg/dL, elective cardiac catheterization, 600 mg 5 doses, n 43, 3 days, MacNeil 2003[10]
  Beneficial effects: Beneficial
[5]; stable chronic renal insufficiency, coronary angiography, 400 mg PO bid for 2 days, n 121, 7 days, Shyu 2002[8]
  Beneficial effects: Beneficial
[5]; stable chronic renal insufficiency, elective cardiac catheterization, 600 mg PO bid, n 54, 2 days, Diaz-Sandoval 2002[7]
  Beneficial effects: Beneficial
[5]; subset receiving <140 mL contrast agent, from 8.5%, p=0.02, 183 patients [190]
  incidence of contrast nephropathy: 0%
[5]; vs 32.2% placebo, P = 0.046, 600 mg 5 doses, MacNeil 2003[10]
  development of CIN by 72 hours: catheterization (4.8% vs 32.2%, P =
[6]
  survival: significantly increased survival
[7]; n 161
  Beneficial effects: Beneficial
[7]; slow clearers
  improvement in mucociliary clearance: a 35% improvement in mucusalary
Not found clinically significant [106]
  side effect reported for NAC treatment for inflammatory conditions: mild to moderate anticoagulation
Several reports [163,249-256]
  adverse responses to intravenous NAC administration: anaphylactoid and allergic responses
[8]; animal models [245-247]
  Hearing loss and cochlear damage from aminoglycoside antibiotics and cisplatin: greatly reduced
[8]; animal models, systemic administration [246,248]
  permanent cochlear damage due to acute acoustic overexposure: almost completely prevented
[9]; CF and primary ciliary dyskinesia, lung function, 600 mg < 30 kg or 800 mg > 30 kg per day po, n 54, 3 months, Stafanger 1988[40]
  Beneficial effects: Beneficial
[9]; air trapping and FEV1, NAC or Ambroxol 200 mg 3 times daily, n 36, 12 weeks, Ratjen 1985[274]
  Beneficial effects: Beneficial
[10]; erythrocyte GSH, GSH:GSSG ratio, plasma soluble VCAM-1, 1200 mg/day po, n 15, 1 month, De Mattia 1998[21]
  Beneficial effects: Beneficial
[10]; type 2 diabetics, two weeks of dietary supplementation, Jahoor ongoing study [197]
  erythrocyte GSH concentration and rate of its synthesis: significant increases
[11]
  Treatment effect: Beneficial
[12]; p < .001, 10% aqueous solution
  reduction on plaque attributable to NAC: 25.56% reduction on plaque attributable to
[12]; plaque indices, 10% aqueous solution of NAC buffered to pH 6.5, n 28
  Beneficial effects: Beneficial
[13]
  Beneficial effects: Beneficial
